Experimental data as given in US9688702B2, “Alpha-amino boronic acid derivatives, selective immunoproteasome inhibitors” (Ares Trading S.A, priority 2011, dated 2017).
Where a name gives a salt, the structure may show the parent alone.

How the values were obtained:
[1] = target: LMP7 (purified human immuno proteasome) (Homo sapiens, UniProt P28062); assay: Determination of LMP7 activity (fluorescence intensity assay, Suc-LLVY-AMC); format: biochemical; conditions: for IC50: 40 μM Suc-LLVY-AMC, 37° C.
Procedure: Measurement of LMP7 inhibition is performed in 384 well format based on fluorescence intensity assay.
(§1) Purified human immuno proteasome (0.5 nM) and serial diluted compounds in DMSO (range of concentrations from 10 μM to 38 pM) or controls (0.5% DMSO) are incubated for 30 minutes at 37° C. in assay buffer containing 50 mM Tris pH 7.4 and 0.03% SDS. The reaction is initiated by the addition of the fluorogenic peptide substrate, Suc-LLVY-AMC (Bachem I-1395), at a concentration of 40 μM. After 90 minutes of incubation at 37° C., fluorescence intensity is measured at λex=350 nm and λem=450 nm with a fluorescence reader (BMG Pherastar reader or equivalent).
as §1, with “proteasome (0.25” for “proteasome (0.5”

[2] = target: Beta5 (purified human constitutive proteasome) (Homo sapiens, UniProt P28074); assay: Determination of Beta5 activity (fluorescence intensity assay, Suc-LLVY-AMC); format: biochemical; conditions: purified human constitutive proteasome 1.0 nM, 40 μM Suc-LLVY-AMC, 37° C.
Procedure: Measurement of Beta5 inhibition is performed in 384 well format based on fluorescence intensity assay.
as §1, with “human constitutive” for “human immuno”, “proteasome (1.0” for “proteasome (0.5”, “(Bachem 1-1395),” for “(Bachem I-1395),”

[3] = purified human immuno proteasome 0.25 nM (examples 79, 80, 83, 84, 85, 87, 88, 89, 90, 91, 93, 94, 96, 97, 101 and 110)
[4] = purified human immuno proteasome 0.5 nM

Row | Selectivity LMP7 vs Beta5 [1] | IC50 [1, 3] | IC50 [2] | IC50 [1, 4] | SMILES
1 | ++ (++: 10 < Selectivity < 30) | < 50 nM | < 50 nM |  | O=C(CCc1ccncc1)N[C@@H](Cc1coc2ccccc12)B(O)O [Example 93, (R)-(2-(benzofuran-3-yl)-1-(3-(pyridin-4-yl)propanamido)ethyl)boronic acid hydrochloride]
2 | +++ (+++: Selectivity > 30) |  | 500 to 5000 nM | < 50 nM | CCOc1cccc(C[C@H](NC(=O)CCc2noc(-c3ccccc3)n2)B(O)O)c1 [Example 68, (R)-(2-(3-ethoxyphenyl)-1-(3-(5-phenyl-1,2,4-oxadiazol-3-yl)propanamido)ethyl)boronic acid]
3 | ++ (++: 10 < Selectivity < 30) |  | 50 to 500 nM | < 50 nM | O=C(CCn1cc(-c2ccccc2)nn1)N[C@@H](Cc1ccc(F)c(C(F)(F)F)c1)B(O)O [Example 71, (R)-(2-(4-fluoro-3-(trifluoromethyl)phenyl)-1-(3-(4-phenyl-1H-1,2,3-triazol-1-yl)propanamido)ethyl)boronic acid]
4 | ++ (++: 10 < Selectivity < 30) | < 50 nM | < 50 nM |  | CCc1cccc(C[C@H](NC(=O)C(Cn2cc(-c3ccccc3)nn2)Cn2ccsc2=O)B(O)O)c1 (stereo partly drawn) [Example 110, ((1R)-2-(3-ethylphenyl)-1-(3-(2-oxothiazol-3(2H)-yl)-2-((4-phenyl-1H-1,2,3-triazol-1-yl)methyl)propanamido)ethyl)boronic acid]
5 | ++ (++: 10 < Selectivity < 30) |  | 500 to 5000 nM | 50 to 500 nM | COc1cc(C[C@H](NC(=O)CCn2cnc3ccccc32)B(O)O)ccc1C [Example 72, (R)-(1-(3-(1H-benzo[d]imidazol-1-yl)propanamido)-2-(3-methoxy-4-methylphenyl)ethyl)boronic acid]
6 | ++ (++: 10 < Selectivity < 30) |  | > 5000 nM | 50 to 500 nM | COc1ccc(C(=O)CCC(=O)N[C@@H](Cc2ccc(F)c(C(F)(F)F)c2)B(O)O)cc1 [Example 50, (R)-(2-(4-fluoro-3-(trifluoromethyl)phenyl)-1-(4-(4-methoxyphenyl)-4-oxobutanamido)ethyl)boronic acid]
7 | ++ (++: 10 < Selectivity < 30) |  | 50 to 500 nM | < 50 nM | COc1cc(F)cc(C[C@H](NC(=O)CCn2cc(-c3ccccc3)nn2)B(O)O)c1 [Example 65, (R)-(2-(3-fluoro-5-methoxyphenyl)-1-(3-(4-phenyl-1H-1,2,3-triazol-1-yl)propanamido)ethyl)boronic acid]
8 | ++ (++: 10 < Selectivity < 30) |  | 500 to 5000 nM | 50 to 500 nM | COc1ccc(C(=O)CCC(=O)N[C@@H](Cc2ccc(OC(F)(F)F)cc2)B(O)O)cc1 [Example 43, (R)-(1-(4-(4-methoxyphenyl)-4-oxobutanamido)-2-(4-(trifluoromethoxy)phenyl)ethyl)boronic acid]
9 | ++ (++: 10 < Selectivity < 30) | < 50 nM | < 50 nM |  | O=C(CCn1c(=O)sc2ccccc21)N[C@@H](Cc1coc2ccccc12)B(O)O [Example 87, (R)-(2-(benzofuran-3-yl)-1-(3-(2-oxobenzo[d]thiazol-3(2H)-yl)propanamido)ethyl)boronic acid]
10 | +++ (+++: Selectivity > 30) | < 50 nM | < 50 nM |  | O=C(CCc1cccc(F)c1)N[C@@H](Cc1coc2ccccc12)B(O)O [Example 85, (R)-(2-(benzofuran-3-yl)-1-(3-(3-fluorophenyl)propanamido)ethyl) boronic acid]
11 | ++ (++: 10 < Selectivity < 30) |  | < 50 nM | < 50 nM | O=C(N[C@@H](Cc1ccsc1)B(O)O)[C@@H](Cc1ccccc1)Cc1cn(-c2ccccc2)nn1 [Example 63, ((R)-1-((S)-2-benzyl-3-(1-phenyl-1H-1,2,3-triazol-4-yl)propanamido)-2-(thiophen-3-yl)ethyl)boronic acid]
12 | + (+: Selectivity < 10) |  | 50 to 500 nM | < 50 nM | COc1ccc(C[C@H](NC(=O)CCn2cnc3ccccc32)B(O)O)cc1C(F)(F)F [Example 53, (R)-(1-(3-(1H-benzo[d]imidazol-1-yl)propanamido)-2-(4-methoxy-3-(trifluoromethyl)phenyl)ethyl)boronic acid]
13 | +++ (+++: Selectivity > 30) |  | 50 to 500 nM | < 50 nM | CCc1cccc(C[C@H](NC(=O)CCn2cc(-c3ccccc3)nn2)B(O)O)c1 [Example 52, (R)-(2-(3-ethylphenyl)-1-(3-(4-phenyl-1H-1,2,3-triazol-1-yl)propanamido)ethyl)boronic acid]

The next lines start with the molecule.

Row | SMILES | Selectivity LMP7 vs Beta5 [1] | IC50 [1, 3] | IC50 [2] | IC50 [1, 4]
14 | COc1ccc(C(=O)CCC(=O)N[C@@H](Cc2ccsc2)B(O)O)cc1 [Example 9, [(1R)-1-{[4-(4-methoxyphenyl)-4-oxobutanoyl]amino}-2-(3-thienyl)ethyl]boronic acid] | ++ (++: 10 < Selectivity < 30) |  | 500 to 5000 nM | 50 to 500 nM
15 | O=C(CCC(=O)c1ccccc1)N[C@@H](Cc1ccsc1)B(O)O [Example 1, [(1R)-1-[(4-oxo-4-phenylbutanoyl)amino]-2-(3-thienyl)ethyl]boronic acid] | ++ (++: 10 < Selectivity < 30) |  | 500 to 5000 nM | 50 to 500 nM
16 | O=C(CCC(=O)c1ccc2ccccc2c1)N[C@@H](Cc1ccsc1)B(O)O [Example 21, [(1R)-1-{[4-(2-naphthyl)-4-oxobutanoyl]amino}-2-(3-thienyl)ethyl]boronic acid] | ++ (++: 10 < Selectivity < 30) |  | 500 to 5000 nM | 50 to 500 nM
17 | O=C(CCn1c(=O)sc2ccccc21)N[C@@H](Cc1ccsc1)B(O)O [Example 34, [(1R)-1-{[3-(2-oxo-1,3-benzothiazol-3(2H)-yl)propanoyl]amino}-2-(3-thienyl)ethyl]boronic acid] | + (+: Selectivity < 10) |  | 50 to 500 nM | < 50 nM
18 | O=C(CCn1cnc2ccccc21)N[C@@H](Cc1ccsc1)B(O)O [Example 33, [(1R)-1-{[3-(1H-benzimidazol-1-yl)propanoyl]amino}-2-(3-thienyl)ethyl]boronic acid] | + (+: Selectivity < 10) |  | 50 to 500 nM | 50 to 500 nM
19 | O=C(CCn1cc(-c2ccccc2)nn1)N[C@@H](Cc1ccsc1)B(O)O [Example 40, [(1R)-1-{[3-(4-phenyl-1H-1,2,3-triazol-1-yl)propanoyl]amino}-2-(3-thienyl)ethyl]boronic acid] | ++ (++: 10 < Selectivity < 30) |  | 50 to 500 nM | < 50 nM
20 | O=C(CC(C(=O)N[C@@H](Cc1ccsc1)B(O)O)c1ccc(Cl)cc1)c1ccccc1 (mixture of isomers) [Example 4, [(1R)-1-{[2-(RS)-(4-chlorophenyl)-4-oxo-4-phenylbutanoyl]amino}-2-(3-thienyl)ethyl]boronic acid] | +++ (+++: Selectivity > 30) |  | 500 to 5000 nM | 50 to 500 nM
21 | O=C(N[C@@H](Cc1ccsc1)B(O)O)[C@H]1CCC[C@@H]1C(=O)c1ccccc1 (racemic) [Example 5, [1-({[(1RS,2SR)-2-benzoylcyclopentyl]carbonyl}amino)-2-(3-thienyl)ethyl]boronic acid] |  |  | > 5000 nM | 500 to 5000 nM
22 | CCc1cccc(C[C@H](NC(=O)CCC(=O)c2cccc(-c3ccccc3)c2)B(O)O)c1 [Example 19, [(1R)-1-[(4-biphenyl-3-yl-4-oxobutanoyl)amino]-2-(3-ethylphenyl)ethyl]boronic acid] | ++ (++: 10 < Selectivity < 30) |  | 500 to 5000 nM | 50 to 500 nM
23 | CCc1cccc(C[C@H](NC(=O)CCC(=O)c2ccc(-c3ccccc3)cc2)B(O)O)c1 [Example 17, [(1R)-1-[(4-biphenyl-4-yl-4-oxobutanoyl)amino]-2-(3-ethylphenyl)ethyl]boronic acid] | ++ (++: 10 < Selectivity < 30) |  | 500 to 5000 nM | 50 to 500 nM
24 | O=C(CCc1noc(-c2ccccc2)n1)N[C@@H](Cc1cccc(C(F)(F)F)c1)B(O)O [Example 39, {(1R)-1-{[3-(5-phenyl-1,2,4-oxadiazol-3-yl)propanoyl]amino}-2-[3-(trifluoromethyl)phenyl]ethyl}boronic acid] | +++ (+++: Selectivity > 30) |  | 500 to 5000 nM | 50 to 500 nM
